Biological target: T1, GLP-1 Receptor (Homo sapiens, UniProt P43220)
T1 construct: host or cells: HEK293/GLP1R/CRE-LUC (HEK293/CRE-Luc stably expressing the GLP-1 receptor)
Assay: GLP-1R agonist cAMP stimulation assay (HEK293/GLP1R/CRE-LUC cells, Cisbio cAMP dynamic 2 kit);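 further: compounds tested in half-log serial dilution, cAMP detected with cAMP-d2 and anti-cAMP cryptate antibody reagents after 1 h at room temperature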
Format: cell-based
Conditions: HEK293/CRE-Luc cell line stably expressing the GLP-1 Receptor; 1000 cells/well; 30 min at 37° C.; 0.5 mM IBMX, 0.1% BSA; read-out: GLP1R cAMP Stimulation DR: EC50

T1 sequence (P43220 24-463, species assumed): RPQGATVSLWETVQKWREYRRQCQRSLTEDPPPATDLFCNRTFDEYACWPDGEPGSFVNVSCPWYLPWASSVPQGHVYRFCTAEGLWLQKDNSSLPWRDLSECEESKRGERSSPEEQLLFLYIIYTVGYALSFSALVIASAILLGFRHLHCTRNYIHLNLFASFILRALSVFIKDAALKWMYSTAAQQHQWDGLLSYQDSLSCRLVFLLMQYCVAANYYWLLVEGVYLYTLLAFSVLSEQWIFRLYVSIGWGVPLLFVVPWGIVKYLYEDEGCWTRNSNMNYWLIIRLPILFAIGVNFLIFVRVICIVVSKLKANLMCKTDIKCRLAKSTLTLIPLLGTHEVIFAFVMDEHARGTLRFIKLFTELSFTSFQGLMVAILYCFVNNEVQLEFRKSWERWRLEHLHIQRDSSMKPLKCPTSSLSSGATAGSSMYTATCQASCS

Row | EC50 [nM] | Compound
1 | 15 | Cc1cc(-c2nnc(C(F)(F)F)[nH]2)cnc1CN1CCC(c2cccc3c2OC(C)(c2ccc(Cl)cn2)O3)CC1 (stereo not drawn) [Compound 264, 2-({4-[2-(5-chloropyridin-2-yl)-2-methyl-2H-1,3-benzodioxol-4-yl]piperidin-1-yl}methyl)-3-methyl-5-[5-(trifluoromethyl)-4H-1,2,4-triazol-3-yl]pyridine]
2 | 4.7 | CC1(c2ccc(Cl)cc2F)Oc2cccc(C3CCN(Cc4ncc(-c5nnc(C(F)(F)F)[nH]5)cc4CCS(C)(=O)=O)CC3)c2O1 (stereo not drawn) [Compound 267, 2-({4-[2-(4-chloro-2-fluorophenyl)-2-methyl-2H-1,3-benzodioxol-4-yl]piperidin-1-yl}methyl)-3-(2-methanesulfonylethyl)-5-[5-(trifluoromethyl)-4H-1,2,4-triazol-3-yl]pyridine]
3 | > 1000 | CC(C)(Oc1ccc(CN2CCC(c3cccc(OCc4ccc(Cl)cc4F)n3)CC2)nc1)C(=O)O [Compound 122, 2-((6-((4-(6-((4-chloro-2-fluorobenzyl)oxy)pyridin-2-yl)piperidin-1-yl)methyl)pyridin-3-yl)oxy)-2-methylpropanoic acid]
4 | 0.093 | O=C(O)/C=C/c1cnc(CN2CCC(c3cccc(OCc4ccc(Cl)cc4F)n3)CC2)n1C[C@@H]1CCO1 [Compound 103a, (S,E)-3-(2-((4-(6-((4-chloro-2-fluorobenzyl)oxy)pyridin-2-yl)piperidin-1-yl)methyl)-1-(oxetan-2-ylmethyl)-1H-imidazol-5-yl)acrylic acid]
5 | 38 | CC(=CC(=O)O)c1nnc(CN2CCC(c3cccc(OCc4ccc(Cl)cc4F)n3)CC2)n1CC1CCC1 [Compound 236, 3-(5-((4-(6-((4-chloro-2-fluorobenzyl)oxy)pyridin-2-yl)piperidin-1-yl)methyl)-4-(cyclobutylmethyl)-4H-1,2,4-triazol-3-yl)but-2-enoic acid]
6 | 0.064 | CC1(c2ccc(Cl)cc2F)Oc2cccc(C3CCN(Cc4ncc(/C=C/C(=O)O)n4CC4COC4)CC3)c2O1 (stereo not drawn) [Compound 194, (E)-3-(2-((4-(2-(4-chloro-2-fluorophenyl)-2-methylbenzo[d][1,3]dioxol-4-yl)piperidin-1-yl)methyl)-1-(oxetan-3-ylmethyl)-1H-imidazol-5-yl)acrylic acid]
7 | 0.011 | CCn1cncc1Cn1c(/C=C(\C)C(=O)O)cnc1CN1CCC(c2cccc3c2OC[C@@H](c2ccc(Cl)cc2)O3)CC1 [Compound 208a, (R,E)-3-(2-((4-(2-(4-chlorophenyl)-2,3-dihydrobenzo [b][1,4]dioxin-5-yl)piperidin-1-yl)methyl)-1-((1-ethyl-1H-imidazol-5-yl)methyl)-1H-imidazol-5-yl)-2-methylacrylic acid]
8 | 1.9 | CC1(c2ccc(Cl)cc2F)Oc2cccc(C3CCN(Cc4ncc(/C=C/C(=O)O)n4Cc4cccnc4C(F)(F)F)CC3)c2O1 (stereo not drawn) [Compound 146, (E)-3-(2-((4-(2-(4-chloro-2-fluorophenyl)-2-methylbenzo[d][1,3]dioxol-4-yl)piperidin-1-yl)methyl)-1-((2-(trifluoromethyl)pyridin-3-yl)methyl)-1H-imidazol-5-yl)acrylic acid]
9 | 0.0023 | CCn1cncc1Cn1c(/C=C(\C)C(=O)O)cnc1CN1CCC(c2cccc3c2O[C@@](C)(c2ccc(Cl)cc2F)O3)CC1 [Compound 138a, (S,E)-3-(2-((4-(2-(4-chloro-2-fluorophenyl)-2-methylbenzo[d][1,3]dioxol-4-yl)piperidin-1-yl)methyl)-1-((1-ethyl-1H-imidazol-5-yl)methyl)-1H-imidazol-5-yl)-2-methylacrylic acid]
10 | > 1000 | CC(Oc1ccc(CN2CCC(c3cccc(OCc4ccc(Cl)cc4F)n3)CC2)nc1)C(=O)O (stereo not drawn) [Compound 125, 2-((6-((4-(6-((4-chloro-2-fluorobenzyl)oxy)pyridin-2-yl)piperidin-1-yl)methyl)pyridin-3-yl)oxy)propanoic acid]
11 | 0.0069 | C[C@]1(c2ccc(Cl)cc2F)Oc2cccc(C3CCN(Cc4ncc(/C=C/C(=O)O)n4C[C@@H]4CCS4(=O)=O)CC3)c2O1 (single isomer, unassigned) [Compound 173a]
12 | 6.4 | CS(=O)(=O)CCn1c(/C=C/C(=O)O)cnc1CN1CCC(c2cccc(OCc3ccc(Cl)cc3F)n2)CC1 [Compound 212, (E)-3-(2-((4-(6-((4-chloro-2-fluorobenzyl)oxy)pyridin-2-yl)piperidin-1-yl)methyl)-1-(2-(methylsulfonyl)ethyl)-1H-imidazol-5-yl)acrylic acid]
13 | 0.16 | C[C@@H](Cn1c(/C=C/C(=O)O)cnc1CN1CCC(c2cccc3c2O[C@@](C)(c2ccc(Cl)cc2F)O3)CC1)OC(F)F [Compound 169a, (E)-3-(2-((4-((S)-2-(4-chloro-2-fluorophenyl)-2-methylbenzo[d][1,3]dioxol-4-yl)piperidin-1-yl)methyl)-1-((S)-2-(difluoromethoxy)propyl)-1H-imidazol-5-yl)acrylic acid]
14 | 0.043 | CC1(c2ccc(Cl)cc2F)Oc2cccc(C3CCN(Cc4ncc(/C=C/C(=O)O)n4Cc4ccccc4)CC3)c2O1 (stereo not drawn) [Compound 151, (E)-3-(1-benzyl-2-((4-(2-(4-chloro-2-fluorophenyl)-2-methylbenzo[d][1,3]dioxol-4-yl)piperidin-1-yl)methyl)-1H-imidazol-5-yl)acrylic acid]
15 | 0.21 | C/C(=C\c1cnc(CN2CCC(c3cccc4c3O[C@@](C)(c3ccc(Cl)cc3)O4)CC2)n1C[C@@H]1CCO1)C(=O)O [Compound 134a, (E)-3-(2-((4-((S)-2-(4-chlorophenyl)-2-methylbenzo [d][1,3]dioxol-4-yl)piperidin-1-yl)methyl)-1-(((S)-oxetan-2-yl)methyl)-1H-imidazol-5-yl)-2-methylacrylic acid]
16 | 35 | O=C(O)C1CC1c1cnc(CN2CCC(c3cccc4c3OC[C@@H](c3ccc(Cl)cc3)O4)CC2)n1C[C@@H]1CCO1 (stereo partly drawn) [Compound 248, 2-(2-((4-((R)-2-(4-chlorophenyl)-2,3-dihydrobenzo[b][1,4]dioxin-5-yl)piperidin-1-yl)methyl)-1-(((S)-oxetan-2-yl)methyl)-1H-imidazol-5-yl)cyclopropane-1-carboxylic acid]
17 | 0.015 | CC1(c2ccc(Cl)cc2F)Oc2cccc(C3CCN(Cc4ncc(/C=C/C(=O)O)n4Cc4ncco4)CC3)c2O1 (stereo not drawn) [Compound 183, (E)-3-(2-((4-(2-(4-chloro-2-fluorophenyl)-2-methylbenzo[d][1,3]dioxol-4-yl)piperidin-1-yl)methyl)-1-(oxazol-2-ylmethyl)-1H-imidazol-5-yl)acrylic acid]
18 | 0.012 | Cc1nocc1Cn1c(/C=C/C(=O)O)cnc1CN1CCC(c2cccc3c2OC(C)(c2ccc(Cl)cc2F)O3)CC1 (stereo not drawn) [Compound 204, (E)-3-(2-((4-(2-(4-chloro-2-fluorophenyl)-2-methylbenzo[d][1,3]dioxol-4-yl)piperidin-1-yl)methyl)-1-((3-methylisoxazol-4-yl)methyl)-1H-imidazol-5-yl)acrylic acid]
19 | 0.091 | COCCCn1c(/C=C/C(=O)O)cnc1CN1CCC(c2cccc3c2OC(C)(c2ccc(Cl)cc2F)O3)CC1 (stereo not drawn) [Compound 195, (E)-3-(2-((4-(2-(4-chloro-2-fluorophenyl)-2-methylbenzo[d][1,3]dioxol-4-yl)piperidin-1-yl)methyl)-1-(3-methoxypropyl)-1H-imidazol-5-yl)acrylic acid]
20 | 99 | Cc1cc(/C=C/C(=O)O)cnc1CN1CCC(c2cccc(OCc3ccc(Cl)cc3F)n2)CC1 [Compound 120, (E)-3-(6-((4-(6-((4-chloro-2-fluorobenzyl)oxy)pyridin-2-yl)piperidin-1-yl)methyl)-5-methylpyridin-3-yl)acrylic acid]
21 | 4.5 | Cc1cc(-c2nnc(C(F)(F)F)[nH]2)cnc1CN1CCC(c2cccc3c2OC(C)(c2ccc(Cl)cc2)O3)CC1 (stereo not drawn) [Compound 265, 2-({4-[2-(4-chlorophenyl)-2-methyl-2H-1,3-benzodioxol-4-yl]piperidin-1-yl}methyl)-3-methyl-5-[5-(trifluoromethyl)-4H-1,2,4-triazol-3-yl]pyridine]
22 | 86.4 | Cn1c(/C=C\C(=O)O)cnc1CN1CCC(c2cccc(OCc3ccc(Cl)cc3F)n2)CC1 [Compound 109, (Z)-3-(2-((4-(6-((4-chloro-2-fluorobenzyl)oxy)pyridin-2-yl)piperidin-1-yl)methyl)-1-methyl-1H-imidazol-5-yl)acrylic acid]
23 | 0.33 | Cn1c(/C=C/C(=O)O)cnc1CN1CCC(c2cccc3c2OC(C)(c2ccc(Cl)cc2F)O3)CC1 (stereo not drawn) [Compound 164, (E)-3-(2-((4-(2-(4-chloro-2-fluorophenyl)-2-methylbenzo[d][1,3]dioxol-4-yl)piperidin-1-yl)methyl)-1-methyl-1H-imidazol-5-yl)acrylic acid]
24 | 20 | CCC(O)Cn1c(/C=C/C(=O)O)cnc1CN1CCC(c2cccc3c2OC(C)(c2ccc(Cl)cc2F)O3)CC1 (stereo not drawn) [Compound 185, (E)-3-(2-((4-(2-(4-chloro-2-fluorophenyl)-2-methylbenzo[d][1,3]dioxol-4-yl)piperidin-1-yl)methyl)-1-(2-hydroxybutyl)-1H-imidazol-5-yl)acrylic acid]

Row | Compound | EC50 [nM]
25 | O=C(O)/C=C/c1cnc(CN2CCC(c3cccc4c3OC[C@@H](c3ccc(Cl)cc3)O4)CC2)n1Cc1cnco1 [Compound 205a, (R,E)-3-(2-((4-(2-(4-chlorophenyl)-2,3-dihydrobenzo[b][1,4]dioxin-5-yl)piperidin-1-yl)methyl)-1-(oxazol-5-ylmethyl)-1H-imidazol-5-yl)acrylic acid] | 0.26
26 | CCc1ncsc1Cn1c(/C=C/C(=O)O)cnc1CN1CCC(c2cccc3c2OC(C)(c2ccc(Cl)cc2F)O3)CC1 (stereo not drawn) [Compound 188, (E)-3-(2-((4-(2-(4-chloro-2-fluorophenyl)-2-methylbenzo[d][1,3]dioxol-4-yl)piperidin-1-yl)methyl)-1-((4-ethylthiazol-5-yl)methyl)-1H-imidazol-5-yl)acrylic acid] | 0.22
27 | C/C(=C\c1cnc(CN2CCC(c3cccc4c3OC(c3ccc(Cl)cc3F)O4)CC2)n1C[C@@H]1CCO1)C(=O)O (stereo partly drawn) [Compound 132a, (E)-3-(2-((4-(2-(4-chloro-2-fluorophenyl)benzo[d][1,3]dioxol-4-yl)piperidin-1-yl)methyl)-1-((S)-oxetan-2-ylmethyl)-1H-imidazol-5-yl)-2-methylacrylic acid] | 1.6

Reference: patent publication US11897851B2, “Heterocyclic GLP-1 agonists” (Gasherbrum Bio, Inc., priority 2021, dated 2024)
